According to patent US5573999A, “β-substituted cinnamic acid derivative” (BASF Aktiengesellschaft, priority 1991, dated 1996):

Key:
[1] = tested on: mitochondrial respiration; assay: Inhibition of mitochondrial respiration (rate of reduction of cytochrome c in isolated mitochondria), yeast; format: biochemical, Saccharomyces cerevisiae; settings: DMSO control
From the text: In order to determine the effect of the compounds according to the invention on mitochondrial respiration it is first necessary to isolate the mitochondria from the organisms being investigated. For this, in the case of the yeast Saccharomyces cerevisiae, the cells in a 30 to 40% strength suspension of the yeast in an aqueous solution of 0.6M mannitol+0.01M tris[hydroxymethyl]-aminomethane+0.002M disodium ethylenediaminetetraacetate (pH 6.8) are disrupted in a glass bead mill, and the extract is fractionated by differential centrifugation at 1000× g and 12000× g. The mitochondria are in the pellet from the 12000× g centrifugation.
(§1) Used as control is a mixture with the equivalent amount of pure DMSO. The inhibition at the concentration of agent in each case is then calculated as follows [formula] where ΔE is the change in extinction, at is the change in time, [formula] is the reaction rate for the control and [formula] is the reaction rate for the sample x.
(§2) The inhibition was determined in each case at a test substance concentration of 1.8/10^-5mol/l .

[2] = tested on: mitochondrial respiration; assay: Inhibition of mitochondrial respiration (rate of reduction of cytochrome c in isolated mitochondria), phytopathogenic fungus; format: biochemical, Drechslera sorokiniana; settings: DMSO control
From the text: (§3) It is also possible similarly to isolate mitochondria from other organisms, e.g. from the phytopathogenic fungus Drechslera sorokiniana (synonym: Helminthosporium sativum), from the dermatophyte Trichophyton mentagrophytes, which is a human pathogen, and, for example, from the house fly (Musca domestica) as insect or from the spider mite Tetranychus urticae.
as §1, §2

[3] = tested on: mitochondrial respiration; assay: Inhibition of mitochondrial respiration (rate of reduction of cytochrome c in isolated mitochondria), house fly; format: biochemical, Musca domestica; settings: DMSO control
From the text: as §3, §1, §2

Plasmopara viticola = assay: Activity against Plasmopara viticola on potted vines; format: in vivo; settings: aqueous dispersion containing 250 ppm active ingredient, infected 8 days after spraying
Description: Leaves of potted vines of the Muller Thurgau variety were sprayed with an aqueous liquor which contained 80% of active ingredient and 20% of emulsifier in dry matter. To assess the duration of action of the active ingredient, after the sprayed-on layer had dried the plants were placed in a greenhouse for 8 days. The leaves were then infected with a suspension of Plasmopara viticola zoospores. The vines were then placed first in a chamber saturated with water vapor at 24° C. for 48 hours and then in a greenhouse at from 20° to 30° C. for 5 days. After this, to speed up sporangiophore discharge, the plants were again placed in the humidity chamber for 16 hours. The extent of fungus attack was then assessed on the undersides of the leaves.

[4] = tested on: wheat mildew (Erysiphe graminis var. tritici); assay: Activity against wheat mildew on wheat seedlings; format: in vivo; settings: aqueous dispersion containing 250 ppm active ingredient, assessed after 7 days
Description: Leaves of pot-grown wheat seedlings of the Fruhgold variety were sprayed with an aqueous liquor which contained 80% of active ingredient and 20% of emulsifier in dry matter and, 24 hours after the sprayed-on layer had dried, were dusted with spores of wheat mildew (Erysiphe graminis var. tritici). The test plants were then placed in a greenhouse at from 20° to 22° C. and from 75 to 80% relative humidity. The extent of mildew spread was assessed after 7 days.

Pyricularia oryzae = format: in vivo; settings: aqueous dispersion containing 250 ppm active ingredient; rice seedlings, protective, assessed after 6 days

O=C(C=C(c1ccccc1)c1ccccc1)N1CCOCC1 [A, morpholide of β-phenylcinnamic acid, reference compound]
% inhibition of respiration at 1.8 × 10^-5 mol/l test substance, Saccharomyces cerevisiae [1]: 2% | % inhibition of respiration at 1.8 × 10^-5 mol/l test substance, Drechslera sorokiniana [2]: 0% | % inhibition of respiration at 1.8 × 10^-5 mol/l test substance, Musca domestica [3]: 5% | fungal attack, Plasmopara viticola (Plasmopara viticola): 35% | fungal attack, wheat mildew [4]: 45% | fungal attack, Pyricularia oryzae (Pyricularia oryzae): 60%

COC(=O)/C=C(/OC)c1ccccc1COc1ccc(C(C)=NOCC(C)C)cc1C [Compound 1a.60]
% inhibition of respiration at 1.8 × 10^-5 mol/l test substance, Saccharomyces cerevisiae [1]: 97% | % inhibition of respiration at 1.8 × 10^-5 mol/l test substance, Drechslera sorokiniana [2]: 99% | % inhibition of respiration at 1.8 × 10^-5 mol/l test substance, Musca domestica [3]: 93% | fungal attack, wheat mildew [4]: 15%

CO/N=C(\C)c1ccc(OCc2ccccc2/C(=C\C(=O)OC)OC)c(C)c1 [Compound 1a.72, methyl (E)-β-methoxy-2-[2-methyl-4-(1-methoximinoethyl)phenoxymethyl]cinnamate]
% inhibition of respiration at 1.8 × 10^-5 mol/l test substance, Saccharomyces cerevisiae [1]: 98% | % inhibition of respiration at 1.8 × 10^-5 mol/l test substance, Drechslera sorokiniana [2]: 100% | % inhibition of respiration at 1.8 × 10^-5 mol/l test substance, Musca domestica [3]: 94% | fungal attack, Plasmopara viticola (Plasmopara viticola): 10% | fungal attack, wheat mildew [4]: 15% | fungal attack, Pyricularia oryzae (Pyricularia oryzae): 15%

COC(=O)/C=C(/OC)c1ccccc1COc1nc(-c2ccccc2)cs1 [Compound 1a.181, methyl (E)-β-methoxy-2-(4-phenyl-2-thiazolyloxymethyl)cinnamate]
% inhibition of respiration at 1.8 × 10^-5 mol/l test substance, Saccharomyces cerevisiae [1]: 99% | fungal attack, Pyricularia oryzae (Pyricularia oryzae): 15%

COC(=O)/C=C(/OC)c1ccccc1/C=C/c1ccccc1[N+](=O)[O-] [Compound 1a.238]
% inhibition of respiration at 1.8 × 10^-5 mol/l test substance, Saccharomyces cerevisiae [1]: 99% | % inhibition of respiration at 1.8 × 10^-5 mol/l test substance, Drechslera sorokiniana [2]: 74% | % inhibition of respiration at 1.8 × 10^-5 mol/l test substance, Musca domestica [3]: 87% | fungal attack, Plasmopara viticola (Plasmopara viticola): 10%

COC(=O)/C=C(/OC)c1ccccc1/C=C\c1ccccc1C [Compound 1a.248]
% inhibition of respiration at 1.8 × 10^-5 mol/l test substance, Saccharomyces cerevisiae [1]: 95% | fungal attack, wheat mildew [4]: 15% | fungal attack, Pyricularia oryzae (Pyricularia oryzae): 15%

COC(=O)/C=C(/OC)c1ccccc1/C=C\c1ccc(-c2ccccc2)cc1 [Compound 1a.269, methyl 2-[2-(4-phenylphenyl)-(Z)-ethenyl]-(E)-β-methoxycinnamate]
% inhibition of respiration at 1.8 × 10^-5 mol/l test substance, Saccharomyces cerevisiae [1]: 96% | % inhibition of respiration at 1.8 × 10^-5 mol/l test substance, Drechslera sorokiniana [2]: 81% | % inhibition of respiration at 1.8 × 10^-5 mol/l test substance, Musca domestica [3]: 76%

COC(=O)/C=C(/OC)c1ccccc1/C=C/c1ccc(Oc2ccccc2)cc1 [Compound 1a.273]
% inhibition of respiration at 1.8 × 10^-5 mol/l test substance, Saccharomyces cerevisiae [1]: 95% | % inhibition of respiration at 1.8 × 10^-5 mol/l test substance, Drechslera sorokiniana [2]: 96% | % inhibition of respiration at 1.8 × 10^-5 mol/l test substance, Musca domestica [3]: 95%

COC(=O)/C=C(/OC)c1ccccc1/C=C/c1ccoc1 [Compound 1a.292]
% inhibition of respiration at 1.8 × 10^-5 mol/l test substance, Saccharomyces cerevisiae [1]: 87% | % inhibition of respiration at 1.8 × 10^-5 mol/l test substance, Drechslera sorokiniana [2]: 79% | % inhibition of respiration at 1.8 × 10^-5 mol/l test substance, Musca domestica [3]: 61% | fungal attack, wheat mildew [4]: 15%

COC(=O)/C=C(/OC)c1ccccc1/C=C/c1coc(-c2ccc(Cl)cc2)n1 [Compound 1a.302]
% inhibition of respiration at 1.8 × 10^-5 mol/l test substance, Saccharomyces cerevisiae [1]: 97% | % inhibition of respiration at 1.8 × 10^-5 mol/l test substance, Musca domestica [3]: 96% | fungal attack, Pyricularia oryzae (Pyricularia oryzae): 15%

COC(=O)/C=C(/OC)c1ccccc1/C=C/c1csc(-c2ccc(Cl)cc2)n1 [Compound 1a.314]
% inhibition of respiration at 1.8 × 10^-5 mol/l test substance, Saccharomyces cerevisiae [1]: 99% | fungal attack, Pyricularia oryzae (Pyricularia oryzae): 15%

COC(=O)/C=C(/OC)c1ccccc1CON=C(C)c1ccc(Cl)cc1 [Compound 1a.356, methyl2-[1-(4-chlorophenyl)ethylideneaminoxymethyl]-(E)-β-methoxycinnamate]
fungal attack, Plasmopara viticola (Plasmopara viticola): 10% | fungal attack, wheat mildew [4]: 15% | fungal attack, Pyricularia oryzae (Pyricularia oryzae): 15%
